Assay [1] concerns the target T1, Vascular endothelial growth factor receptor 2 (Homo sapiens, UniProt P35968). Put plainly: Inhibition of VEGFR-2 (978 to 1408 residues) (unknown origin) using pEY (4:1) as substrate for 20 min in the presence of ATP by ELISA method. On the technique in general: ELISA stands for enzyme-linked immunosorbent assay.
For assay [2], the target named is T1, Vascular endothelial growth factor receptor 2. Put plainly: Inhibition of human recombinant VEGFR-2 kinase activity using poly(Glu-Tyr) at 4:1 ratio as substrate incubated for 60 mins by ELISA.
Assay [3] shares this target. Nature of the assay: Inhibition of human recombinant VEGFR-2 expressed in Sf21 insect cells incubated for 60 mins by ELISA.
The test system of assay [4] is MDA-MB-231. Put plainly: Antiproliferative activity against human MDA-MB-231 cells assessed as cell growth inhibition measured after 48 hrs by MTT assay. The format is functional, cell-based. The conditions noted are these: MDA-MB-231, 48 h. On the technique in general: Tetrazolium assays rely on reduction of a dye to a coloured formazan, in cell work by metabolically active cells.

In assay [5] the target is T1, Vascular endothelial growth factor receptor 2. Put plainly: Inhibition of human recombinant VEGFR-2 kinase activity using poly(Glu-Tyr) at 4:1 ratio as substrate incubated for 60 mins by ELISA method.
For assay [6] the target is unchanged. Put plainly: Inhibition of human VEGFR-2.
The target is the same in assay [7]. Nature of the assay: Inhibition of human recombinant VEGFR-2 in the presence of ATP.
Assay [8] has the same target. Nature of the assay: Inhibition of VEGFR-2 (unknown origin) kinase activity using poly(Glu-Tyr) at 4:1 ratio as substrate in presence of ATP incubated for 1 hr by ELISA.
The target is the same in assay [9]. Nature of the assay: Inhibition of recombinant VEGFR-2 (unknown origin).
Assay [10] has the same target. Nature of the assay: Inhibition of VEGFR-2 (unknown origin) incubated for 45 mins by ELISA.
Assay [11] can be described thus: Inhibition of tyrosine kinase in human PANC-1 cells. The format is cell-based.
Assay [12] concerns the target T1, Vascular endothelial growth factor receptor 2. Nature of the assay: Inhibition of VEGFR-2 (unknown origin) incubated for […] by ELISA method.
In assay [13] the test system is HepG2. Nature of the assay: Antiproliferative activity against human HepG2 cells assessed as reduction in cell viability by MTT assay. In kind it is functional, cell-based.
Another assay relates to PC-3. Put plainly: Antiproliferative activity against human PC-3 cells assessed as inhibition of cell growth incubated for 48 hrs by MTT assay. The format is functional, cell-based. Particulars: PC-3, 48 h.
Assay [14] has as its system MCF7. Nature of the assay: Antiproliferative activity against human MCF7 cells assessed as reduction in cell viability incubated for 24 hrs by MTT assay. In kind it is functional, cell-based. The conditions noted are these: MCF7, 24 h.
Assay [15] concerns the target T1, Vascular endothelial growth factor receptor 2. Nature of the assay: Inhibition of VEGFR-2 (unknown origin) kinase activity using poly(Glu-Tyr) at 4:1 ratio as substrate in presence of ATP incubated for 5 mins by ELISA method.
For assay [16] the target is unchanged. Nature of the assay: Inhibition of VEGFR-2 (unknown origin).
For assay [17], the system named is HepG2. Nature of the assay: Cytotoxicity against human HepG2 cells assessed as cell growth inhibition. The format is functional, cell-based.
Assay [18] concerns MCF7. Put plainly: Cytotoxicity against human MCF7 cells assessed as cell growth inhibition. The format is functional, cell-based.
Assay [19] concerns the target T1, Vascular endothelial growth factor receptor 2. Put plainly: Inhibition of human recombinant VEGFR-2 by ELISA method.
The test system of assay [20] is HepG2. Nature of the assay: Anticancer activity against human HepG2 cells assessed as inhibition of cell growth incubated for 24 hrs by MTT assay. Particulars: HepG2, 24 h. The format is functional, cell-based.
Assay [21] has as its system MCF7. Nature of the assay: Anticancer activity against human MCF7 cells assessed as inhibition of cell growth incubated for 24 hrs by MTT assay. Particulars: MCF7, 24 h. In kind it is functional, cell-based.
The target of assay [22] is T1, Vascular endothelial growth factor receptor 2. Nature of the assay: Inhibition of human recombinant VEGFR-2 kinase activity using poly(Glu-Tyr) at 4:1 ratio as substrate incubated for […] by ELISA method.
In the next assay the test system is HeLa. Put plainly: Cytotoxicity against human HeLa cells assessed as reduction in cell viability incubated for 24 hrs by MTT assay. The format is functional, cell-based.
For the next assay, the system named is A549. Nature of the assay: Cytotoxicity against human A549 cells assessed as reduction in cell viability incubated for 72 hrs by MTT assay. In kind it is functional, cell-based. The conditions noted are these: A549, 72 h.
Assay [23] relates to MDA-MB-231. Put plainly: Cytotoxicity against human MDA-MB-231 cells assessed as reduction in cell viability incubated for 72 hrs by MTT assay. The format is functional, cell-based. The conditions noted are these: MDA-MB-231, 72 h.
For assay [24], the target named is T1, Vascular endothelial growth factor receptor 2. Nature of the assay: Inhibition of VEGFR-2 (unknown origin).
Assay [25] shares this target. Put plainly: Inhibition of recombinant VEGFR-2 (unknown origin). The source holds these as a separate data set.
The subject of assay [26] is HepG2. Nature of the assay: Anticancer activity against human HepG2 cells assessed as reduction in cell viability measured after 72 hrs by MTT assay. The format is functional, cell-based. The conditions noted are these: HepG2, 72 h.
For assay [27], the target named is T1, Vascular endothelial growth factor receptor 2. Put plainly: Inhibition of human recombinant VEGFR-2.
Assay [28] shares this target. Put plainly: Inhibition of human VEGFR-2 kinase activity using poly(Glu-Tyr) at 4:1 ratio as substrate preincubated for 30 mins followed by compound addition incubated for 1 hrs by ELISA.

pIC50: −log10 of the molar value.

The source of these data is ChEMBL document CHEMBL5376014, “Role of heterocycles in inhibition of VEGFR-2 - a recent update (2019-2022)” (RSC Med Chem, 2024).

T1 sequence (P35968 whole entry, the tested form may be a part): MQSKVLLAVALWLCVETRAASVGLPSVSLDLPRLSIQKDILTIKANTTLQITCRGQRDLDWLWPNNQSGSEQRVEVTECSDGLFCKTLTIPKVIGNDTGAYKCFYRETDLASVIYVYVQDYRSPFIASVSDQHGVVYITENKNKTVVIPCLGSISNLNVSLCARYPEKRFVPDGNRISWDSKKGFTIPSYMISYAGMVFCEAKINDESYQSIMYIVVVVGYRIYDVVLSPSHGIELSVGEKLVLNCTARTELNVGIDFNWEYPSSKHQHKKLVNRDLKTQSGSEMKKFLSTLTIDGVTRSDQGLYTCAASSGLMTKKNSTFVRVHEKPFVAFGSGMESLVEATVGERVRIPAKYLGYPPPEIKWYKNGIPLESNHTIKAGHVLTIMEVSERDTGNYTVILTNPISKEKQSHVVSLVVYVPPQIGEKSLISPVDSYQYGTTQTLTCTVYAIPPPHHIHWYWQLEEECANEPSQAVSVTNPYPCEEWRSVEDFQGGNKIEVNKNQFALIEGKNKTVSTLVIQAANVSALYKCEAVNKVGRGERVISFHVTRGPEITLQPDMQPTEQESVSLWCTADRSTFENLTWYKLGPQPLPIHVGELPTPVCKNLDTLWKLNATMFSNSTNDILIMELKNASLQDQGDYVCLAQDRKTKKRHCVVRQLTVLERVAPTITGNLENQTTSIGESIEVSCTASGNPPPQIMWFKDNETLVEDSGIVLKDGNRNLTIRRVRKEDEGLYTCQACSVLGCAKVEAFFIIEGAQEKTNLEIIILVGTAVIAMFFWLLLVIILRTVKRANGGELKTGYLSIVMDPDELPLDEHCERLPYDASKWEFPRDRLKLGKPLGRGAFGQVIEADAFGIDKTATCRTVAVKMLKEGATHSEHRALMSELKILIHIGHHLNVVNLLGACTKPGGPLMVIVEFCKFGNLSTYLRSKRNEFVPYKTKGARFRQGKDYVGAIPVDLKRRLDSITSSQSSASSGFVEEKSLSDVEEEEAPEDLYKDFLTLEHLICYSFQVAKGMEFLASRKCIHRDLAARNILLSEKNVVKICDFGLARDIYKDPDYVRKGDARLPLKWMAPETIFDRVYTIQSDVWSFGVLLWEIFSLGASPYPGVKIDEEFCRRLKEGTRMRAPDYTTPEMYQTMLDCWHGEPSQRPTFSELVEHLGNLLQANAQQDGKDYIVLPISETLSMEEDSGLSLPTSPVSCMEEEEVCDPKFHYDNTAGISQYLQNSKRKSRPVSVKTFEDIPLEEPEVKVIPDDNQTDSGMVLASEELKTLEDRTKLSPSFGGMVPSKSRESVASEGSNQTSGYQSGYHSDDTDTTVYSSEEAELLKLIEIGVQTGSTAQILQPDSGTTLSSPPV

One may read the pIC50 as the IC50 on a negative log10 scale, so that one unit is a factor of ten. Consider `CC(=O)N1N=C(C2CCCO2)CC1c1cn(-c2ccccc2)nc1-c1cccc([N+](=O)[O-])c1` (stereo not given), for which the negative logarithm of the IC50 (pIC50) in assay [1] was 6.66.
For `Cc1ccc(NC(=O)c2ccc(NC(=O)CN3C(=O)S/C(=C/c4ccccc4)C3=O)cc2)cc1`, the pIC50 in assay [2] is 6.60.
Regarding `COc1cc(/C=C2\CCCn3c2nc2c(cnn2C)c3=O)cc(OC)c1OC`, the pIC50 in [3] is 7.88; in the assay with MDA-MB-231 [4], 7.85.
Consider `CC(=O)c1ccc(NC(=O)CSC2=NC(=O)C(C#N)C(c3ccccc3)N2)cc1` (stereo not given), for which, in [5], the negative-log IC50 (pIC50) is 6.41.
`CCOc1ccc(Nc2nnc3c4c(cccc24)NC(=S)N3Cc2ccccc2)cc1`: the pIC50 in assay [6] was 7.52.
For `NC(=O)CCn1cc(-c2ccc3ncnc(Nc4cc(O)ccc4F)c3c2)nn1`, in assay [7], the pIC50 is 7.92.
For `COc1cc(-c2cc(-c3ccc4ccccc4c3)nc(NN)c2C#N)ccc1O`, the negative-log IC50 (pIC50) in assay [8] was 9.72.
Consider `COc1cc(C2NC(SCC(=O)Nc3ccc(C(C)=O)cc3)=NC(=O)C2C#N)cc(OC)c1OC` (stereo not given), for which, in assay [5], the negative-log IC50 (pIC50) was 6.70.
Take `N#Cc1c(-c2ccc([N+](=O)[O-])cc2)cc(-c2ccc3ccccc3c2)nc1NN`: the pIC50 in assay [8] was 9.47.
For the compound `COc1ccc(C2=Nn3c(N/N=C4\C(=O)Nc5ccc(F)cc54)nnc3SC2)cc1`, the negative-log IC50 (pIC50) in [9] was 6.36.
With `Cc1ccc(C)c(NC(=O)CSc2nc3ccccc3c(=O)n2-c2ccc(S(N)(=O)=O)cc2)c1`, in assay [10], the pIC50 was 6.32.
`N=c1cc(N)nc2sc(NC(=O)c3cccs3)nn12` gave a negative logarithm of the IC50 (pIC50) in assay [11] of 8.09.
As for `CCn1c(SCC(=O)NNC(=O)c2ccccc2)nc2ccc([N+](=O)[O-])cc2c1=O`, the pIC50 in assay [12] is 5.34; in the assay with HepG2 [13], 4.76; in the assay on PC-3, 4.58; in the assay on MCF7 [14], 4.51.
As to `Cc1nc2ccccc2n(CC(=O)Nc2ccc(C(=O)NNC(=O)c3ccccc3O)cc2)c1=O`, the pIC50 in [15] is 5.92.
In [11], `O=C(NC1=NN2C(=O)/C(=C\c3ccco3)N=C2S1)c1cccs1` had a pIC50 of 8.03.
On to `O=C(N/N=C/c1ccc(Cl)cc1)c1ccc(Nc2ncnc3sc4c(c23)CCCC4)cc1`, for which the negative-log IC50 (pIC50) in [16] was 6.64.
Consider `Cc1nc2ccccc2n(CC(=O)Nc2ccc(C(=O)NC(C)(C)C)cc2)c1=O`, for which the negative logarithm of the IC50 (pIC50) in the assay on HepG2 [17] is 5.35; with MCF7 [18], 5.11.
On to `COc1ccc(NC(=O)c2ccc(NC(=O)CSc3nnc4c5nncn5c5ccccc5n34)cc2)cc1`, for which the negative-log IC50 (pIC50) in assay [19] is 5.49; with HepG2 [20] it was 5.48; in the assay on MCF7 [21], 5.36.
Regarding `COc1cc(/C=C/C(=O)c2ccc(N3CCNCC3)cc2)ccc1F`, the pIC50 in assay [22] is 6.24.
Regarding `O=C(CN1C(=O)S/C(=C/c2ccccc2)C1=O)Nc1ccc(C(=O)NCc2ccccc2)cc1`, in [2], the pIC50 was 6.55.
With `CCc1ccc(NC(=O)c2ccc(NC(=O)CN3C(=O)S/C(=C/c4ccccc4)C3=O)cc2)cc1`, the pIC50 in [2] is 6.66.
As to `NC(=O)CCn1cc(-c2ccc3ncnc(Nc4ccc(F)c(O)c4)c3c2)nn1`, in assay [7], the negative-log IC50 (pIC50) was 7.19.
For `O=[N+]([O-])c1cccc(-c2nn(-c3ccccc3)cc2C2CC(C3CCCO3)=NN2c2ccccc2)c1` (stereo not given), the negative-log IC50 (pIC50) in assay [1] was 6.04.
Take `CCOC(=O)CSc1nc2ccc(C)cc2c(=O)n1-c1ccc(F)cc1`: the pIC50 in the assay with HeLa was 5.90; with A549, 6.24; in the assay on MDA-MB-231 [23], 5.92.
For `COC(C)Oc1cc2ncnc(Oc3ccc(NC(=O)C4(C(=O)Nc5ccc(F)cc5)CC4)cc3)c2c2c1OCCO2` (stereo not given), the pIC50 in assay [24] is 8.06.
Take `Cc1nc2ccccc2n(CC(=O)Nc2ccc(C(=O)NCc3ccccc3)cc2)c1=O`: the pIC50 in assay [15] is 5.96.
Take `O=C(CCSc1nc2ccccc2o1)Nc1ccc(S(=O)(=O)NC(=O)NC2CCCCC2)cc1`: the pIC50 in [25] is 7.10.
Take `N#Cc1c(-c2ccc(Cl)cc2)cc(-c2ccc3ccccc3c2)nc1NN`: in assay [8], the negative logarithm of the IC50 (pIC50) was 9.60.
Consider `CC1=NN(c2ccc([N+](=O)[O-])cc2[N+](=O)[O-])C(=O)/C1=C\c1cn(-c2ccccc2)nc1-c1cccc([N+](=O)[O-])c1`, for which the pIC50 in assay [1] was 6.09.
Compound `COc1cccc(CNC(=O)CSc2nc3ccccc3c(=O)n2-c2ccc(S(N)(=O)=O)cc2)c1OC` gave a pIC50 in [10] of 6.62.
In the case of `C/C(=N\NC(=O)c1ccc(Nc2ncnc3sc4c(c23)CCCC4)cc1)c1ccccc1`, the negative logarithm of the IC50 (pIC50) in assay [16] was 6.44.
With `Fc1ccc(Nc2nnc3c4c(cccc24)NC(=S)N3Cc2ccccc2)cc1`, the pIC50 is 6.68 in [6] and 6.66 with HepG2 [26].
In assay [24], `COc1cc2ncnc(Oc3ccc(NC(=O)C4(C(=O)Nc5ccc(F)cc5)CC4)cc3F)c2c2c1OCCO2` showed a pIC50 of 8.46.
For the compound `N#C/C(=C\c1cccs1)c1nnc(NC(=O)c2ccco2)s1`, in assay [27], the pIC50 was 8.12.
As to `N#CCc1nnc(NC(=O)c2ccco2)s1`, the pIC50 in assay [27] was 8.13.
As to `COC(C)Oc1cc2ncnc(Oc3ccc(NC(=O)C4(C(=O)Nc5ccc(F)cc5)CC4)cc3F)c2c2c1OCCO2` (stereo not given), in [24], the negative-log IC50 (pIC50) was 8.44.
With `O=C(CSc1nnc2c3nncn3c3ccccc3n12)Nc1ccc(C(=O)Nc2cncs2)cc1`, the negative-log IC50 (pIC50) in [19] was 5.51.
On to `O=C(/C=C/c1cccc(F)c1)c1ccc(N2CCNCC2)cc1`, for which, in assay [22], the negative logarithm of the IC50 (pIC50) is 6.10.
As to `Cc1ccc(S(=O)(=O)Nc2ccc(-c3cc(-c4cccc(F)c4)c(C#N)c(N)n3)cc2)cc1`, the pIC50 in assay [28] was 5.44.
In turn, `O=C(CSc1nc2ccc([N+](=O)[O-])cc2c(=O)n1-c1ccccc1)NNC(=O)c1ccccc1` showed a pIC50 in [12] of 5.32.
